Measured values reported in US10005817B2, “Peptide pharmaceuticals” (EUMEDERIS PHARMACEUTICALS, INC., priority 2012, dated 2018).
Entries after “also recorded” stand apart in the source; their conditions may differ. Non-standard residues stand in square brackets, D forms with d. Residues, ends and D or L forms follow the SMILES beside them. *: point of attachment. GlcA(β-D,1-O-dodecyl) = CCCCCCCCCCCCO[C@@H]1O[C@H](C(=O)*)[C@@H](O)[C@H](O)[C@H]1O; βGlcA(1-OMe) = CO[C@@H]1O[C@H](C(=O)*)[C@@H](O)[C@H](O)[C@H]1O; Dmt = Cc1cc(O)cc(C)c1C[C@H](N)C(=O)O; hArg = N=C(N)NCCCC[C@H](N)C(=O)O; Tic = O=C(O)[C@@H]1Cc2ccccc2CN1; Nle = CCCC[C@H](N)C(=O)O; Ac5c = NC1(C(=O)O)CCCC1; Aib = CC(C)(N)C(=O)O

Experiments:
PTH receptor (PTHR1) = target: T1, PTH receptor (PTHR1) (Homo sapiens, UniProt Q03431); test: PTH1 cellular assay, antagonist mode with added PTHrP; type: cell-based; settings: read-out: maximal effects in antagonist mode
T1 construct: Cerep SA
T1 sequence (Q03431 27-593): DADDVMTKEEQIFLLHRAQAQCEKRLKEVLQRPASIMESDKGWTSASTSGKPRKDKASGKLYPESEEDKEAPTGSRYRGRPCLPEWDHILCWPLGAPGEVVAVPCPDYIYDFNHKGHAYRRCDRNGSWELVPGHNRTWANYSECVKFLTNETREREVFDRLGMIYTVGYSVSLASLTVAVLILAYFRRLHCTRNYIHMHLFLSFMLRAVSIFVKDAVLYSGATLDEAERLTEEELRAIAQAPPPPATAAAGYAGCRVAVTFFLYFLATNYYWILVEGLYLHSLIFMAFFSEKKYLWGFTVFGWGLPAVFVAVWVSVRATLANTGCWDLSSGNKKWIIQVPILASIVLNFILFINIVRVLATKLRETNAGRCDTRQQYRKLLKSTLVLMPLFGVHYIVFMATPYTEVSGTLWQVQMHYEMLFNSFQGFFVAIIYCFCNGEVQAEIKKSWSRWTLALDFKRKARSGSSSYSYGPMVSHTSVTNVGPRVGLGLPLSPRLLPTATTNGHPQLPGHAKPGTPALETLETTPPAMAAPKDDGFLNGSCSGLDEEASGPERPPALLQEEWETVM
Protocol: Compounds were weighed precisely in an amount of approximately 1 mg and assayed in standard cellular assays (cerep SA). The readout is the amount of cAMP generated in the cells treated with the test compounds, in either agonist or antagonist mode. The PTH1 cellular assay used is described in Orloff, J. J., et al. (1992) Endocrinol 131: 1603-1611.
Modifications elsewhere in the molecule can be used to further modify the potency and character of the interaction of the drug candidates.

mu opioid receptor = target: T2, mu opioid receptor (Homo sapiens, UniProt P35372); test: mu opioid receptor cellular assay (MOP), agonist mode, cAMP readout (Cerep); type: cell-based
T2 construct: Cerep

[1] = tested on: λ-carrageenan-induced inflammatory pain; test: λ-carrageenan-induced inflammatory pain model, paw pressure threshold (Randall-Selitto); type: in vivo, rat; settings: rats, i.pl., 24 h after carrageenan; beyond 30 min
Protocol: Adult male Sprague-Dawley rats were briefly anesthetized with isoflurane, and unilateral hind paw inflammatory pain was induced by injecting […] of λ-carrageenan. A λ-carrageenan injection into the left hind paw produces redness and edema. These alterations were observed within 6 h after induction of inflammation and peaked by 24 h. Further, the changes were confined to the carrageenan treated paw.
Changes in Paw Pressure Thresholds (PPT), a measurement of nociception and antinociception, was evaluated using a digital Randall-Selitto method. Briefly, animals are gently restrained and incremental pressure (maximum 350 g) was applied onto the dorsal surface of the hindpaw. The pressure required to elicit paw withdrawal, PPT, was determined. Paw-thickness, the indicator of inflammation, was measured using digital calipers. 24 h after induction of inflammation, rats received either saline, positive controls (DAMGO (8-32 μg) or fentanyl (0.4-0.8 μg)) or test peptides in 100 μl volume i.pl. The antinociception was measured at different time points (5 to 120 min or 5 hr to 24 hr) after drug administration. Baseline measures were taken before administering drug to confirm the development of inflammation and nociception.

delta2 opioid receptor = target: T3, delta2 opioid receptor (Mus musculus, UniProt P32300); test: delta2 opioid receptor cellular assay (DOP), antagonist mode vs DPDPE, cAMP readout; type: cell-based
T3 construct: Cerep
Protocol: Compounds were weighed precisely in an amount of approximately 2 mg and assayed in standard cellular assays by the contract research organization Cerep, Inc. (Pullman, Wash.) as executed at their subsidiary, Cerep SA (Le Bois l'Eveque, France). The readout is the amount of cAMP generated in the cells treated with the test compounds, in either agonist or antagonist mode. The assays used were the mu opioid receptor cellular assay (MOP in agonist and antagonist mode), the delta2 opioid receptor cellular assay (DOP in agonist and antagonist mode) and the kappa opioid receptor cellular assay (KOP in agonist and antagonist mode). The assays used are described in Wang, J. B., et al. (1994) FEBS Lett 338: 217-222, Law, P. Y. and Loh, H. H. (1993) Mol Pharmacol 43: 684-693, and Avidor-Reiss, T., et al. (1995) FEBS Lett 361: 70-74. The stimulant for the cells in the DOR antagonist assay was 3×10E-8M DPDPE, a well-accepted DOR literature standard.

GLP-1 R = target: T4, GLP-1 R (Mus musculus, UniProt O35659); test: GLP-1 cellular assay, cAMP stimulation (murine cell line, Cerep); type: cell-based; settings: n.c. = EC50 not calculable
T4 construct: GLP-1 (murine cell line) cellular assays
T4 sequence (O35659 22-463): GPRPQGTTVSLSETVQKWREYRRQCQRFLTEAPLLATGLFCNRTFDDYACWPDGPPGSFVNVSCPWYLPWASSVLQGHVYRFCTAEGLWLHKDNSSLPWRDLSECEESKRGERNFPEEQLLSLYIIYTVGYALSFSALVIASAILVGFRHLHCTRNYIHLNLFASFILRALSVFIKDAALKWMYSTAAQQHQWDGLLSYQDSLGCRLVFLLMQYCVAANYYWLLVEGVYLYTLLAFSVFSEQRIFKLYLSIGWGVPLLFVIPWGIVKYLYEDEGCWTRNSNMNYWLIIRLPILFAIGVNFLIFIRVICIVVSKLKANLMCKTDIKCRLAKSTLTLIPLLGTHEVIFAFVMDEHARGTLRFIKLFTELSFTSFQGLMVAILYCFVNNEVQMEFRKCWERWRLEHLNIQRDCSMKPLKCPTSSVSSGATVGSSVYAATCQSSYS
Protocol: Compounds were weighed precisely in an amount of approximately 1 mg and assayed in standard cellular assays (Cerep SA). The readout is the amount of cAMP generated in the cells treated with the test compounds, in either agonist or antagonist mode. […] The assays are described in Chicchi, G. G., et al. (1997) J Biol Chem 272: 7765-7769 and Runge, S., et al. (2003) Br J Pharmacol 138: 787-794.

db/db mice [2] = test: db/db mice, body weight; type: in vivo, mouse; settings: high dose (300 nmoles/kg), Days 2 and 3
Protocol: (§1) The 60 female db/db B6BKS (D) Leprdb/J (strain 000697) mice for this study were approximately 8 to 9 weeks old at arrival (Jackson Laboratory, Bar Harbor, Me.). The mice were randomized by weight and two treatment groups of 8 female mice each were administered the test articles, EU-A994, EU-A995, or EU-A1026, at dose levels of 100 or 300 nmoles/kg. One group of 8 female mice served as the vehicle control and received the vehicle, 0.2% BSA in saline, pH 7.4. One additional group of 8 female mice received the positive control article, liraglutide, at a dose level of 50 nmoles/kg. The test articles, vehicle, and positive control article were administered on Day 1, at approximately 0, 7, and 24 hours during the study via subcutaneous injection at a dose volume of 6 mL/kg.
(§2) Clinical observations were conducted at receipt, prior to randomization, and daily from Days 1 to 5. Body weights were measured and recorded at receipt, prior to randomization, and daily from Days 1 to 5. Food consumption was measured and recorded daily from Days 1 to 5. Blood samples for glucose analysis were collected pretest (Day −3) and at 0, 1, 2, 4, 8, 10, 24, 48, 72, and 96 hours following the first dose on Day 1. At study termination all animals were euthanized and the carcasses were discarded without further evaluation.

db/db mice [3] = test: db/db mice, blood glucose after s.c. dosing; type: in vivo, mouse; settings: for Mean Blood Glucose: db/db mice, s.c., 300 nmole/kg
Protocol: as §1, with “The mice were randomized by weight and two treatment groups of 8 female mice each were administered the test articles, EU-A994, EU-A995, or EU-A1026, at dose levels of 100 or 300 nmoles/kg.” left out
as §2

T3 sequence (P32300 whole entry): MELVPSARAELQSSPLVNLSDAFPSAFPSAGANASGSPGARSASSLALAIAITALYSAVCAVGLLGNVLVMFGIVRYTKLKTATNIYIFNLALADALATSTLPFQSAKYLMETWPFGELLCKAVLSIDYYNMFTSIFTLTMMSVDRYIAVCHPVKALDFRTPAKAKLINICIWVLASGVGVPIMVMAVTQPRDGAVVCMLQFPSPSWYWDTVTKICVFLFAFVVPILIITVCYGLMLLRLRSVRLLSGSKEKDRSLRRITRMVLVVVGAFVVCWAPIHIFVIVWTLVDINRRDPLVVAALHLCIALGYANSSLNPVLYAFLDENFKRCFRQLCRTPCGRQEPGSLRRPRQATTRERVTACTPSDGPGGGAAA
T2 sequence (P35372 whole entry): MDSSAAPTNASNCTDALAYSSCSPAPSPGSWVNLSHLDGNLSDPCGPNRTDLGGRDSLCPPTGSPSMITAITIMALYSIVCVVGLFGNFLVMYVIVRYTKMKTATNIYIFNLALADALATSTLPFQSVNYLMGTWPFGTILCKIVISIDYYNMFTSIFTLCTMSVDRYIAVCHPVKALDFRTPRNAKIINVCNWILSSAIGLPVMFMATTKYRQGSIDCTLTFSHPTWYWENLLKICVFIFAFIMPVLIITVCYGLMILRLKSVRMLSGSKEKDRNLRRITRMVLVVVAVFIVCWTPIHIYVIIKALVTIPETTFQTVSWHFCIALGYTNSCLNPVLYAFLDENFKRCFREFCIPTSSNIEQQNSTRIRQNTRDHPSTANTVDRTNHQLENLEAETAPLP

SMILES: CCCCCCCCCCCCO[C@@H]1O[C@H](C(=O)NCCCC[C@H](NC(=O)[C@H](CCC(N)=O)NC(=O)[C@@H](NC(=O)[C@H](Cc2ccccc2)NC(=O)[C@H](CCCNC(=N)N)NC(=O)[C@H](C)NC(=O)[C@H](CCCCNC(=N)N)NC(=O)[C@H](CCC(N)=O)NC(=O)[C@H](Cc2c[nH]cn2)NC(=O)[C@H](CCCC)NC(=O)[C@H](CC(C)C)NC(=O)[C@H](CCC(N)=O)NC(=O)[C@@H](NC(=O)[C@H](CCC(=O)O)NC(=O)C(C)(C)NC(=O)[C@@H](NC(=O)C2(N)CCCC2)C(C)C)[C@@H](C)CC)[C@@H](C)CC)C(N)=O)[C@@H](O)[C@H](O)[C@H]1O [EU-203] (H-[Ac5c]V[Aib]EIQL[Nle]HQ[hArg]ARFIQK(GlcA(β-D,1-O-dodecyl))-NH2; N-terminus assumed)
- Emax (PTH receptor (PTHR1)): 146%

SMILES: CO[C@@H]1O[C@H](C(=O)NCCCC[C@H](NC(=O)[C@H](Cc2ccccc2)NC(=O)[C@@H]2Cc3ccccc3CN2C(=O)[C@@H](N)Cc2c(C)cc(O)cc2C)C(N)=O)[C@@H](O)[C@H](O)[C@H]1O [EU-A178, 2′,6′-dimethyl-L-tyrosyl-L-1,2,3,4-tetrahydroisoquinoline-3-carbonyl-L-phenylalanyl-Nε-(1′-methyl β-D-glucuronyl)-L-lysyl-amide] (H-[Dmt][Tic]FK(βGlcA(1-OMe))-NH2)
- Characterization (MOP) (mu opioid receptor): full agonistic behavior; also recorded: Pure MOP Ag;
- Paw Pressure Thresholds (PPT) [1]: statistically significant increases in PPT
- Characterization (DOP) (delta2 opioid receptor): pure antagonist; also recorded: pure DOP antag

SMILES: CCCCCCCCCCCCO[C@@H]1O[C@H](C(=O)NCCCC[C@H](NC(=O)[C@@H]2CCCCNC(=O)CC[C@H](NC(=O)[C@H](CC(=O)O)NC(=O)[C@H](CC(C)C)NC(=O)[C@H](Cc3ccc(O)cc3)NC(=O)[C@H](CCCCN)NC(=O)[C@H](CO)NC(=O)[C@H](Cc3ccc(O)cc3)NC(=O)[C@H](CC(=O)O)NC(=O)[C@H](CO)NC(=O)[C@@H](NC(=O)[C@H](Cc3ccccc3)NC(=O)[C@@H](NC(=O)CNC(=O)[C@H](CCC(N)=O)NC(=O)C(C)(C)NC(=O)[C@@H](N)Cc3c[nH]cn3)[C@@H](C)O)[C@@H](C)O)C(=O)N[C@@H](CCCNC(=N)N)C(=O)N[C@@H](C)C(=O)N[C@@H](C)C(=O)N2)C(=O)N[C@@H](Cc2ccccc2)C(=O)NC(C)(C)C(N)=O)[C@@H](O)[C@H](O)[C@H]1O [EU-A455]
- EC50 (GLP-1 R): 59 nM

SMILES: CCCCCCCCCCCCCCO[C@@H]1O[C@H](C(=O)NCCCC[C@H](NC(=O)[C@@H](NC(=O)[C@H](Cc2ccccc2)NC(=O)[C@H](CCC(=O)O)NC(=O)[C@@H]2CCCCNC(=O)CC[C@H](NC(=O)[C@H](CC(=O)O)NC(=O)[C@H](CC(C)C)NC(=O)[C@H](Cc3ccc(O)cc3)NC(=O)[C@H](CCCCN)NC(=O)[C@H](CO)NC(=O)[C@H](Cc3ccc(O)cc3)NC(=O)[C@H](CC(=O)O)NC(=O)[C@H](CO)NC(=O)[C@@H](NC(=O)[C@H](Cc3ccccc3)NC(=O)[C@@H](NC(=O)CNC(=O)[C@H](CCC(N)=O)NC(=O)C(C)(C)NC(=O)[C@@H](N)Cc3c[nH]cn3)[C@@H](C)O)[C@@H](C)O)C(=O)N[C@@H](CCC(N)=O)C(=O)N[C@@H](C)C(=O)N[C@@H](C)C(=O)N2)[C@@H](C)CC)C(=O)N[C@@H](Cc2c[nH]c3ccccc23)C(=O)N[C@@H](CC(C)C)C(=O)N[C@@H](CC(C)C)C(=O)N[C@@H](CCC(N)=O)C(=O)N[C@H](C(N)=O)[C@@H](C)O)[C@@H](O)[C@H](O)[C@H]1O [EU-A994]
- body weight changes against vehicle (db/db mice [2]): Significant body weight changes
- Mean Blood Glucose (db/db mice [3]; 0 hr): 554 mg/dL
- Mean Blood Glucose (db/db mice [3]; 10 hr): 242 mg/dL
- Mean Blood Glucose (db/db mice [3]; 24 hr): 209 mg/dL
- Mean Blood Glucose (db/db mice [3]; 48 hr): 385 mg/dL
- Glucose levels vs vehicle (db/db mice [3]; high dose (300 nmoles/kg), at 10 and 24 hours): significantly different from vehicle
